Laboratory results: patent US8969549B2, “Antioxidant small molecules aimed at targeting metal-based oxidative stress in neurogenerative disorders” (Texas Christian University, priority 2013, dated 2015)

Legend:
[1] = DPPH radical quenching assay; type: biochemical
From the text: Compound 2 (Chart 2) exists largely as the pyridol tautomer as confirmed by NMR. The reactivity of pyridol/pyridone based compounds such as chelidamic acid have shown reactivity with OH radicals in solution to form bis-pyridones and is a different mechanism than pyridine based compounds such as 1 (Chart 2). This reactivity is attributed to the enhanced antioxidant capacity observed. Chelidamic acid is the pyridone congener to the starting material used to produce 1. Therefore similar methodologies to produce 2 in gram scale quantities were employed.
As radicals are one product of miscompartmentalized metal ions, radical scavenging capability of compounds 1-3 (Chart 4) was tested using the DPPH assay. DPPH (2,2-diphenyl-1-picrylhydrazyl), is a dark purple (λmax=540 nm), stable free radical in solution that can be reduced to DPPHH in the presence of molecules with radical scavenging activity. This process results in a color change from dark purple to light yellow and can be followed spectroscopically by the decrease of the band at 540 nm. Applicants have, therefore, utilized this method to measure radical scavenging capability of their own organic molecules. BHT (butylhydroxytoluene) was used as a positive control due to its known antioxidant properties.
DPPH stock solution was prepared by dissolving 25 mg in 100 mL of absolute EtOH. The working radical solution was prepared by dilution with absolute EtOH to an absorbance of 1.3 at 512 nm. Stock solutions of the compounds tested were dissolved in DI H2O and EtOH 95% respectively and serial dilutions were made to get different concentrations. For the analysis 2 mL of the solutions were incubated with 2 mL of DPPH working solutions in the dark for 24 h. as well as 2 mL of DPPH working solution with 2 mL of H2O or EtOH to serve as blank. Analysis of the solutions was performed as follows: 1 mL of the sample solution was diluted with 1 mL of H2O shaken and the absorbance was measured at 515 nm.

MTT cytotoxicity assay = type: cell-based; conditions: mouse, HT-22 hippocampal neuronal cells, HT-22 cells
Procedure: As these compounds show potential for future in vivo studies, the 3-(4,5-dimethythiazol-2-yl)-2,5-diphenyl tetrazolium bromide (MTT) assay was performed in order to test compounds 2, 3 of Chart 4 for cytotoxicity with HT-22 cells, which is a hippocampal neuronal cell line extracted from mice. This is a colorimetric assay that measures the mitochondrial activity of living cells in which MTT crosses into the mitochondria where it is reduced to media insoluble formazan (dark purple), which is later solubilized in DMSO and measured spectroscopically (λmax=540 nm). Since the reduction of MTT can only occur in living cells with undamaged mitochondria, this is a good assay to measure cell proliferation and cytotoxicity.
For the biological assays mouse hippocampal HT-22 cell line was used, incubated them at 37° C. in a humidified atmosphere 5% CO2, with Dulbecco's Modified Eagle Medium (500 ml) containing penicillin/streptomycin 100× (5 ml), Glutamine (100 mM, 5 ml), charcoal strip fetal bovine serum. […]
(3-(4,5-dimethylthiazol-2-yl)-2,5-diphenyltetrazolium bromide) cells were seeded in a 96 well plate with a density of 5000 cells per well (in 100 μL per well). […] Media is discarded again and 100 μL of DMSO are added to each well, rocked for 5 minutes and the absorbance (A510) was measured using a Molecular Devices Kinetic Microplate Reader.

FRDA cells [2] = experiment: Calcein AM viability assay with BSO; type: cell-based, human; conditions: Homo sapiens, 48 hour BSO 1 mM; for viability at 0.001 µM: compound 1 nM final, read-out: cell viability compared to untreated control cells
Procedure: (§1) FIG. 5 is a graph showing a Calcien AM viability assay of FRDA cells after 48 hour exposure to BSO [1 mM] with 1-4 [1 nM final].
(§2) FIG. 10 is a graph showing Calcein AM viability assay of FRDA cells after 48 hour exposure to BSO [1 mM] followed by addition of 2 [various concentrations].
(§3) FRDA cells have higher levels of ROS due to mitochondrial misfunction associated with frataxin expression and therefore serve as a good model for ROS protection. […] Calcein AM, a non-fluorescent, hydrophobic compound that easily permeates intact, live cells, was used as an indicator for cell viability.
(§4) This dose response is visualized in the fluorescent cell images shown in FIG. 11 with increased cell survival corresponding to increasing 2 in the nM range.

[3] = log K constants with Cu^II; type: binding
From the text: (§5) The ligand is the backbone to PCTA, a potential MRI contrast agent explored in recent years and has been repurposed for Applicant's work.

[4] = log K constants with Zn^II; type: binding
From the text: as §5

[5] = ABTS radical assay standardized against Trolox; type: biochemical; conditions: ligand concentration 100 μM
[6] = Calcein AM viability assay with BSO; type: cell-based, human; conditions: human, FRDA cells (fibroblasts from a Friedreich's Ataxia patient), BSO 1 mM alone, read-out: cell viability compared to control cells, BSO-alone
Procedure: as §1, §2, §3, §4

FRDA cells [7] = experiment: DCFH-DA ROS assay with BSO; type: cell-based, human
Procedure: FIG. 6 is a graph showing DCFH-DA fluorescent response in FRDA cells after 12 hours exposure to BSO [1 mM] with 1-4 [4 nM].
FIG. 7 is a graph of DCFH-DA fluorescent response in FRDA cells after 12 hours exposure to BSO [1 mM] showing dose dependence with 1.
FIG. 9 is a graph of DCFH-DA fluorescent response in FRDA cells after 12 hours exposure to BSO [1 mM] showing dose dependence with 1 and 2.
The antioxidant activity of compound 1 compared to compounds 2-3 (Chart 1) was then studied using the cell-permeable fluorophore 2,7′-Dichlorodihydrofluorescin diacetate (DCFH-DA) as an indicator for ROS. DCFH-DA diffuses into cells and is deacetylated by cellular esterases to non-fluorescent 2′,7′-Dichlorodihydrofluorescin (DCFH). This species is subsequently oxidized to the highly fluorescent 2′,7′-Dichlorodihydrofluorescein (DCF) species in the presence of ROS. The fluorescent intensity is directly proportional to the amount of ROS present in cell cytosol. BSO (2-amino-4-(butylsulfonimidoyl)butanoic acid) was used to inhibit the first step of de novo glutathione synthesis, allowing us to observe the elevated intra-cellular [ROS] are thereby observed.
Cellular studies were carried out to evaluate the intra-cellular antioxidant efficacy and toxicity of compound 2 (Chart 2) compared to 1 using the cell-permeable fluorophore 2,7′-dichlorodihydrofluorescin diacetate (DCFH-DA) as an indicator for ROS. DCFH-DA diffuses into cells and is deacetylated by cellular esterases to non-fluorescent 2′,7′-dichlorodihydrofluorescin (DCFH) which is subsequently oxidized to the highly fluorescent 2′,7′-dichlorodihydrofluorescein (DCF) species in the presence of ROS. The fluorescence intensity is directly proportional to the amount of ROS present in cell cytosol.^11 BSO (2-amino-4-(butylsulfonimidoyl)butanoic acid) is a commonly used model for oxidative stress via inhibition of cytosolic glutathione synthesis resulting in elevated intra-cellular [ROS] and an increased fluorescent signal in the presence of DCFH (FIG. 9).

Aβ1-40 [8] = experiment: Turbidity assay of metal-induced amyloid aggregation; type: biochemical; conditions: for disaggregation of pre-formed metal-induced Aβ1-40 aggregates (turbidity): copper(II) or zinc(II) aggregates, ligand added afterwards
From the text: Metal ions (copper and zinc) bind to a histidine rich domain in amyloid producing Aβ in the form of insoluble plaques. This process has been comprehensively studied and described in a number of recent reviews. The aggregation of amyloid can be followed by simple spectroscopic techniques such as turbidity and tyrosine fluorescence studies. These methods were used to investigate the ability of 1 to dissociate pre-formed amyloid aggregates upon addition of metal ions, as well as prevent amyloid aggregation.
Metal ions bind to a histidine rich domain in amyloid producing Aβ in the form of insoluble plaques. This process has been extensively studied and described in a number of recent reviews.

Aβ1-40 [9] = experiment: Tyr^10 fluorescence of Aβ1-40; type: biochemical
From the text: FIG. 2 is a graph showing the addition of ligands 1-4 to aggregated Aβ results in reconstitution of Tyr^10 fluorescence which was decreased due to aggregate formation.
To further determine the capability of 1 to prevent or disrupt metal-ion induced amyloid aggregation, Applicant's studied Tyr fluorescence intensity. Recent reports have also utilized the natural fluorescence of the native Tyr^10 in the Aβ1-40 sequence to study the conformational dynamics of amyloid folding as it relates to AD and/or production of H2O2. As Tyr^10 is located within proximity to the metal binding pocket in Aβ1-40 the fluorescence intensity of the phenolic side chain decreases during the folding process due to environmental changes that occur locally. This work was supported by circular dichroism spectra, which verified that fluorescence intensity decreased as the conformation of amyloid changed to beta-sheets. […] Applicant's hypothesis was that Tyr fluorescence intensity should be restored to control levels upon addition of compounds 1-4 (Chart 1) to a solution of pre-formed metal aggregates, as shown below in FIG. 2. […] Similar results were also obtained for amyloid samples co-incubated with 1-4 prior to metal ion addition.
The macrocyclic compound 2 (Chart 2) is also a chelator capable of preventing metal-induced amyloid formation as well as disaggregation. Metal ions bind to a histidine rich domain in amyloid producing Aβ in the form of insoluble plaques. This process has been extensively studied and described in a number of recent reviews. […] Moreover, amyloid aggregates formed by metal ion co-incubation can be disaggregated by the addition of compounds 1 or 2 (FIG. 12b).

[10] = LA/DHLA; cited from earlier work
[11] = Cu-ascorbate redox system with coumarin-3-carboxylic acid (CCA); type: biochemical; conditions: added after two minutes co-incubation with CCA
From the text: As increased levels of ROS are associated with AD, Applicant's set out to investigate the antioxidant character of 1 compared to the heterocycles 2 and/or 3. […] Moreover, many of the pathways proposed to produce ROS leading to AD pathology involve metal ions. Applicant's therefore utilized the Cu-ascorbate redox system, Scheme 1, as a model to determine if the ligands could halt copper based redox activity under aerobic conditions:
Faller and co-workers employed this system to investigate the redox chemistry of amyloid systems with Cu. Coumarin-3-carboxylic acid (CCA), which generates fluorescent 7-hydroxy-CCA in the presence of hydroxyl radicals, was used to quantify the reduction of oxygen by copper redox-cycling in the presence of ascorbate.

O=C(NCCNc1nc(N2CCNCCNCCNCC2)nc(N2CCNCCNCCNCC2)n1)c1cc2ccccc2oc1=O [3 (Chart 4), N-(2-((4,6-di(1,4,7,10-tetraazacyclododecan-1-yl)-1,3,5-triazin-2-yl)amino)ethyl)-2-oxo-2H-chromene-3-carboxamide]
quenching of the DPPH radical ([1]; concentration dependent, concentrations not given): 52-64%
EC50 at 48 h (MTT cytotoxicity assay): 125 µM

O=C(O)CN(CCN(CC(=O)O)CC(=O)O)CC(=O)O [4 (Chart 1)]
viability at 0.001 µM (FRDA cells [2]): > 60%
log K constants Cu^II [3]: 9.18
log K constants Zn^II [4]: 8.41
Trolox equivalents (ABTS radical) [5]: 0.15 Trolox equivalents

CCCCS(=N)(=O)CCC(N)C(=O)O (centres unmarked) [BSO, 2-amino-4-(butylsulfonimidoyl)butanoic acid, reference compound]
viability at 48 h, 1 mM [6]: ~45%
increase in ROS, BSO-treated cells (positive control) (FRDA cells [7]; BSO 1 mM alone): ~1.8 fold

C1CNCCNCCNCCN1 [Compound 2 (Chart 1)]
viability at 0.001 µM (FRDA cells [2]): > 60%
log K constants Cu^II [3]: 23
disaggregation of pre-formed metal-induced Aβ1-40 aggregates (turbidity) (Aβ1-40 [8]): Aβ dis-aggregating agents, which Applicant's studies corroborate
log K constants Zn^II [4]: 16
Trolox equivalents (ABTS radical) [5]: 0.23 Trolox equivalents

Oc1cc2nc(c1)CNCCNCCNC2 [Compound 2 (Chart 2)]
ability to reduce free radicals in solution (DPPH) versus 1 [1]: enhanced ability to reduce free radicals in solution
EC50 (FRDA cells [2]; read-out: EC50 protection against BSO assault (Calcein AM)): 31.5 ± 4.96 nM
disaggregation of pre-formed metal-induced Aβ1-40 aggregates (turbidity) (Aβ1-40 [8]): disaggregated
prevention of metal-induced Aβ1-40 aggregation (turbidity) (Aβ1-40 [8]; ligand co-incubated with amyloid before copper(II) or zinc(II) addition): prevents formation of aggregations
reconstitution of Tyr^10 fluorescence of aggregated Aβ1-40 (Aβ1-40 [9]; ligand added to pre-formed metal aggregates): equally effective
prevention of loss of Tyr^10 fluorescence of Aβ1-40 (Aβ1-40 [9]; ligand co-incubated prior to metal ion addition, 24 hours): equally effective
decrease of [ROS] compared to the untreated cells (FRDA cells [7]; 1.25 nM): 33%
decrease of [ROS] compared to the untreated cells (FRDA cells [7]; 12.5 nM): 58%
decrease of [ROS] compared to the untreated cells (FRDA cells [7]; 125 nM): 75%
decrease of [ROS] compared to the untreated cells (FRDA cells [7]; 1.25 μM): 87%

O=C(O)CCCCC1CCSS1 (stereo not drawn) [LA, α-lipoic acid]
redox potential [10]: −320 mV

C1CNCCNCCNCCN1 [cyclen, 1,4,7,10-tetraazacyclododecane, reference compound]
quenching of the DPPH radical ([1]; 1250 μM): no activity

Aβ1-40: beta-amyloid peptide 1-40 with histidine rich metal binding site [reference compound]
7-hydroxy-CCA signal after addition to running Cu-ascorbate system [11]: leveling of the 7-hydroxy-CCA signal
